# Reference: patent publication US11419857B2, “Methods and compositions for treating pain” (Apkarian Technologies LLC, priority 2015, dated 2022)
# Test system: iSPNs in NAc shell slices
# Assay: Whole-cell patch-clamp recording of iSPN excitability in NAc shell slices, drugs bath applied
# Type: cell-based, mice
# Experimental: Current clamp recordings were performed to quantify firing properties.
# Sulpiride and Bicifadine were obtained from Tocris. CBR12909 was obtained from Sigma-Aldrich. Drugs were bath applied for at least 15 min to establish equilibrium in the tissue.
Compound,"excitability of iSPNs (brain slices from sham mice, 5 μM)","excitability of iSPNs (slices from SNI mice, 5 μM)","excitability of iSPNs (slices from SNI mice, bath application 20 μM)"
CCN1CCCC1CNC(=O)c1cc(S(N)(=O)=O)ccc1OC (stereo not drawn) [sulpiride],increased the excitability of iSPNs,no detectable change in iSPNs excitability,–
Cc1ccc(C23CNCC2C3)cc1 (stereo not drawn) [bicifadine],–,–,decreased the excitability of iSPNs
